# A melting point compilation (Tetko et al.; mined from patent text by program, amines drawn as free bases though some values may be those of a salt)
row,Compound,melting point
1,"COC(=O)C1=C(C)NC(C)=C(C(=O)O)C1c1ccccc1C(F)(F)F (single isomer, unassigned; (+))",109 °C
2,CCC(CCCCCCCCC(C)(C)CO)N1C(=O)c2cccc([N+](=O)[O-])c2C1=O (configuration not stated),66 to 68 °C
3,Cc1ccc(Cl)cc1-n1c(CF)nc2ccc(N)cc2c1=O,214 to 216 °C
4,O=[N+]([O-])c1nc(NCCO)ccc1NCCO,158 °C
5,COc1cc(N)c(Cl)cc1C(=O)CC(O)c1ccncc1 (configuration not stated),181 to 183 °C
6,COc1cc([N+](=O)[O-])c(O)c(OC)c1OC,72 to 73 °C
7,COc1ccc(C=CC(=O)NNC(=O)C=Cc2ccc(OC)cc2)cc1,288 °C
8,Cn1nc(N)c2sc3ncccc3c21,194 to 196 °C
9,CCC1=NNC(C)=C(C(=O)OCCOC(C)C)C1c1cccc([N+](=O)[O-])c1 (configuration not stated),84 °C
10,CCC(=NNC(=O)OC(C)(C)C)c1ccncc1,170 °C
11,CCC(O)(CCC(N)=O)c1ccc(Cl)c(Cl)c1 (configuration not stated),106 to 107 °C
12,CCCCCCCC(=O)OCCc1c(-c2ccccc2)nc(N)n2ncnc12,89 to 91 °C
13,COc1ccc(C(=O)NC(=O)Nc2ccc3c(c2)/C(=C/c2ccc[nH]2)C(=O)N3)cc1,278 to 283 °C
14,COC(=O)c1nc(N=[N+]=[N-])ccc1OCc1ccccc1,88 to 89 °C
15,CCCc1nc2c(c(C)c(C)n3nnnc23)n1CC(C)(C)NC(=O)NC1CCCCC1,196 to 198 °C
16,O=C(NC12CC3CC(CC1C3)C2)c1ccncc1C(c1ccc(O)cc1)c1ccc(O)cc1,218 to 220 °C
17,O=C(Oc1ccc(Oc2ccc(C(F)(F)F)cn2)cc1)N1CCN(c2ncccc2C(F)(F)F)CC1,131 to 132 °C
18,CC(=O)Nc1c(N(C)C)cnn(-c2ccccc2)c1=O,186 to 187 °C
19,NS(=O)(=O)c1cc(C(=O)O)cc([N+](=O)[O-])c1Oc1ccc(OCc2ccccc2)cc1,247 °C
20,COc1ccc(CC#N)c2c1OC(C)(C)O2,58 to 59 °C
21,Cn1ccc(-c2ccc(C(=O)O)c(Cl)c2)n1,232 to 233 °C
22,CCOc1cc(C2=NNC(=O)[C@H]3CC=CC[C@@H]23)ccc1OC (relative stereo),163 to 166 °C

row,Compound,melting point
1,Cc1ccccc1-n1c(C=Cc2ccccc2F)nc2cnccc2c1=O,211 to 212 °C
2,Cc1cccc(-c2csc(N3C(=O)c4ccccc4C3=O)c2C(=O)O)c1,195 °C
3,Cc1nc(C(C)(C)C)c(O)c(C(C)(C)C)n1,62 to 65 °C
4,N#Cc1cnn2c(C(F)(F)F)cc(-c3cccnc3)nc12,193 °C
5,CCCCCC(C)C(C)c1cc(O)c2c(c1)OC(C)(C)C1=C2CN(CC(=O)NC(N)=O)CC1 (configuration not stated),131 to 133 °C
6,Cc1ccc(N=Cc2ccc(-c3ccccc3)cc2)cc1,137 to 139 °C
7,C=C(C)[C@H]1CC[C@@](C)(O)[C@H](NC23CC4CC(CC(C4)C2)C3)C1,94 to 96 °C
8,COc1ccc2c(n1)C1(CO2)C(=O)N(Cc2csc(C(C)C)n2)c2ccccc21 (configuration not stated),136 to 138 °C
9,N#CC(Sc1nc2ccccc2[nH]1)c1ccccn1 (configuration not stated),166 to 167 °C
10,O=C(O)C1Cc2c([nH]c3ccccc23)CN1C(=S)SCCc1ccccc1 (configuration not stated),89 to 90 °C
11,CC(C)NC1=NS(=O)(=O)c2sc(Br)c(Br)c2N1,250 to 251 °C
12,Cc1c(-n2ccnc2)n(Cc2ccc(C(=O)O)cc2)c2ccccc12,221 to 225 °C
13,O=C(NC(Cc1ccccc1)C(=O)O)OCc1ccc(NC(=O)c2ccccc2)cc1 (configuration not stated),197 to 198 °C
14,"CN1CCC(C2c3ccccc3C=Cc3ccc(Br)cc32)CC1 (single isomer, unassigned; (+))",178 to 180 °C
15,COc1ccc(NN=C2CCCCC2=O)cc1,177 °C
16,CCCCC/C=C\C/C=C\CCCCCCCC(=O)Nc1c(OC)cc(OC)cc1OC,87 to 89 °C
17,CC(C)c1cccc(C(C)C)c1NC(=O)N(Cc1ccc(N(C)C)cc1)c1ccc(Cl)cc1,151 to 152 °C
18,O=c1[nH]c(N2CCN(CCCCN3CCCCC3)CC2)cc2c(Cl)cccc12,172 to 173 °C
19,CCOC(=O)C(=NOC(C)(C)C(=O)OC(C)(C)C)c1csc(NC(c2ccccc2)(c2ccccc2)c2ccccc2)n1,124 to 125 °C
20,c1coc(-c2cnc3[nH]c4ccccc4c3c2)c1,> 220 °C
21,O=C(O)c1cccc(CC2COc3cc(OCc4ccc5ccccc5n4)ccc3C2O)c1 (configuration not stated),165 to 168 °C
22,CCCCOC(=O)[C@H]1CN(c2ccc3c(c2)oc(=O)n3C(C)C)C(=O)O1,86 to 89 °C

row,Compound,melting point
1,"CC(O)(C(=O)O)c1cccc(OCc2ccc3ccccc3c2)c1 (single isomer, unassigned; (-))",104 to 106 °C
2,Cc1cc2ncn(C)c(=O)c2s1,188 to 190 °C
3,CCCN(c1ccccc1)C1CCN(CCOc2c(C)cccc2C)CC1,82 °C
4,CCNC(=O)c1ccc(-n2nnc(C(=O)NC3CC3)c2CCCCCF)cc1,150 °C
5,O=S(=O)(O)c1ccc(Nc2ncnc3cc(Cl)ccc23)cc1,> 300 °C
6,CS(=O)(=O)Nc1cc(C(O)CNC2CCN(c3ccc(C=C4SC(=O)NC4=O)cc3F)CC2)ccc1O (configuration not stated),> 225 °C
7,CC(C)(C)OC(=O)Nc1ccc(-c2ccccc2)cc1N,137 °C
8,COc1ccc(CCc2cc3cc(Br)ccc3o2)cc1,109 to 111 °C
9,CC(=O)Nc1ccccc1CC1NC(=O)NC1=O (configuration not stated),200 to 202 °C
10,CC(C)(O)Cc1ccc2ccccc2c1,79 to 80 °C
11,O=C(Nc1ccc(Cl)cc1)n1cc(F)c(=O)[nH]c1=O,> 260 °C
12,CCOC(=O)CC1CCc2c(sc3c(Cl)cccc23)C1 (configuration not stated),51 to 53 °C
13,CCCCc1ccc(C#Cc2ccc(Br)cc2)cc1,75.6 to 76.1 °C
14,COC(=O)c1ccc(C(=O)NNC(=O)c2ccc(C(=O)OC)cc2)cc1,287 to 290 °C
15,CCc1cccc(CC(=O)O)c1OCCCc1cn(-c2ccc(Cl)cn2)nc1C(CC)CC,114 to 115 °C
16,CCOC(=O)N1CCC(Nc2nc3cncnc3n2Cc2ccccc2)CC1,157 °C
17,Cc1c(-c2ccc(OCc3ccccc3)c(F)c2)[nH]c2ccc(OCc3ccccc3)cc12,135 to 137 °C
18,Cc1cc(Cl)ccc1N=c1scc(-c2ccc(Cl)c(S(=O)(=O)N(C)C)c2)n1C,137 to 141 °C
19,Cc1c(Br)c(C(F)(F)F)nn1C(C)C(=O)N(C)C (configuration not stated),86 to 88 °C
20,CCCCCCCCOC(=O)NCCCCCCNC(=O)OCCCCCCCC,106 to 107 °C
21,CCOC(=O)c1ncc2[nH]c3ccccc3c2c1C,235 to 239 °C
22,COc1ccc(C(O)=C(C#N)C(=O)C(C)(C)C)c([N+](=O)[O-])c1,85 to 88 °C

# Results, then the molecule that gave them:
row,melting point,Compound
1,184 to 185 °C,C[C@@H]1O[C@](C#CC2CC2)(C(F)(F)F)c2cc(F)ccc2NC1=O (relative stereo)
2,152 to 153 °C,COc1cc([N+](=O)[O-])c(NC(C)=O)cc1Cl
3,> 260 °C,CCOC(=O)c1cc(-c2csc(-c3ccnc(NCC4CC4)c3)n2)c(=O)[nH]c1C
4,191 to 193 °C,Cc1nc(N2CCOCC2)ccc1N1CCCn2c1nc1c(Cl)ccc(C(OC(F)F)C(F)(F)F)c12 (configuration not stated)
5,93 to 95 °C,NC(=O)c1cc(OCCNCC(O)COc2ccccc2-c2cc3ccccc3[nH]2)ccc1O (configuration not stated)
6,132 to 136 °C,O=C(c1ccc2nonc2c1)N1CCC(O)CC1
7,167 to 170 °C,NC(=O)C1CCC2(CC1)OCCO2
8,122 to 124 °C,O=C(CC12CC3CC(CC(C3)C1)C2)Nc1ccccc1Cl
9,115 to 116 °C,CCCc1c(OCCCSc2ccc(C(=O)CCC(=O)O)cc2F)ccc(C(C)=O)c1O
10,119 to 120 °C,CCOc1cc(OCCCc2cn(-c3cc(C(F)(F)F)ccn3)nc2OCC)ccc1CCC(=O)O
11,65 to 67 °C,CCOC(=N)C(O)c1ccccc1 (configuration not stated)
12,322 to 324 °C,Cc1nc2c(N)nc3cnccc3c2n1CC(C)C
13,76 °C,O=C(OCCCO)c1cc([N+](=O)[O-])cc([N+](=O)[O-])c1
14,241 to 242 °C,NC(=O)C1=NN(c2ccccc2)C(C(=O)O)=NN1c1ccccc1
15,244 to 246 °C,c1ccc(Cn2cc(-c3ncc(-c4ccc5cc(OCc6nnn[nH]6)ccc5c4)o3)c3ccccc32)cc1
16,208 to 211 °C,Cc1ccc2c3c(c(Cl)nc2c1)C(=O)c1ccccc1-3

row,melting point,Compound
1,103 to 106 °C,CCOC(=O)c1ccsc1NC(=O)NCCN1CCN(c2ccc(OC)cc2)CC1
2,93 to 96 °C,COC(=O)c1nc2ccc(NCCCN3CCC(OC(c4ccccc4)c4ccccc4)CC3)nn2n1
3,142 °C,COc1ccc(CN(C)CCCSc2ccc(NC(=O)c3cccc4c(=O)c5cccc(SC)c5[nH]c34)cc2)cc1OC
4,152 to 160 °C,Nc1cc(N2CCN(C(c3ccccc3)(c3ccccc3)c3ccccc3)CC2)nc(N)n1
5,127 to 130 °C,O=C1SC(Cc2ccc(OCCON=Cc3cnc4ccccc4c3)cc2)C(=O)N1C(c1ccccc1)(c1ccccc1)c1ccccc1 (configuration not stated)
6,195 to 197 °C,COc1ccc(N2CCN(Cc3n[nH]c4c(F)c(F)ccc34)CC2)cc1
7,123 to 126 °C,O=C(O)c1ccc(OC(F)(F)F)c(Cl)c1Cl
8,113 to 114 °C,CCOC(=O)C1=C(C)NC(CSCO)=C(C(=O)OCC)C1c1cccc([N+](=O)[O-])c1 (configuration not stated)
9,158 to 160 °C,NS(=O)(=O)c1ccsc1C(=O)OC1COC1
10,75 to 76 °C,CCC(CC)(CC(=O)Nc1cccc(OCc2ccc3ccc(C)cc3n2)c1)C(=O)O
11,249 to 252 °C,CC1(n2cccc2)CN(c2c(F)cc3c(=O)c(C(=O)O)cn(C4CC4)c3c2F)C1
12,185 to 186 °C,FC(F)(F)COc1nc(-c2ccccc2)c2cc(Cl)ccc2n1
13,> 300 °C,N=C(N)c1ccc(-c2cnc(-c3ccc(C(=N)N)cc3)nc2)cc1
14,221 to 222 °C,Cc1ccc(Nc2ccc(Nc3ncnc4cc(-c5ccccc5)sc34)cc2)cc1
15,168 to 169 °C,Cc1ccc(N(c2ccc(C)cc2)c2ccc(C=C3c4ccccc4C=Cc4ccccc43)cc2)cc1
